Reference: the supplement of paper PMC6965134
± gives the standard deviation of the averaged measurements.

Test: TIMS collisional cross section (CCS, N2) of the lipid ion; higher = larger ion cross section
Conditions: ionization mode: positive, one isomer drawn

Row | Structure (SMILES) | TIMS collisional cross section (sample type: HeLa) [Å²] | TIMS collisional cross section (sample type: Liver) [Å²] | TIMS collisional cross section (sample type: plasma) [Å²]
1 | CCCCC/C=C\C/C=C\CCCCCCCC(=O)O[C@H](COC(=O)CCCCCCC/C=C\CCCCCCCC)COP(=O)(O)OCCN [PE 18:1_18:2] (ion (formula + adduct): [C41H76NO8P+Na] 1+) | 276 | 277.2 | –
2 | CC/C=C\C/C=C\C/C=C\C/C=C\C/C=C\C/C=C\CCC(=O)O[C@H](CO/C=C\CCCCCCCCCCCCCC)COP(=O)(O)OCCN [PE P- 16:0@_22:6] (ion (formula + adduct): [C43H74NO7P+H] 1+) | 277.3 | – | 277.4
3 | CCCCC/C=C\C/C=C\C/C=C\C/C=C\CCCC(=O)O[C@H](CO/C=C\CCCCCCCCCCCCCCCC)COP(=O)(O)OCCN [PE P- 18:0@_20:4] (ion (formula + adduct): [C43H78NO7P+H] 1+) | 281.6 | 281.6 | 281.6 ± 0.14
4 | CCCCCCCCCCCCCCC(=O)OC[C@@H](COC(=O)CCCCCCCCCCCCC)OC(=O)CCCCCCCCCCCCCC [TG 14:0_15:0_15:0] (ion (formula + adduct): [C47H90O6+NH4] 1+) | – | 302 | –
5 | CCCCCCCC/C=C\CCCCCCCC(=O)OC[C@@H](COC(=O)CCCCCCCCCCC)OC(=O)CCCCCCCCCCC [TG 12:0_12:0_18:1] (ion (formula + adduct): [C45H84O6+NH4] 1+) | – | 291.3 | –
6 | CCCCC/C=C\C/C=C\C/C=C\C/C=C\CCCC(=O)O[C@H](COC(=O)CCCCCCC/C=C\CCCCCCC)COP(=O)(O)OCCN [PE 17:1_20:4] (ion (formula + adduct): [C42H74NO8P+H] 1+) | – | 275.6 | –

Further lines, results first:

Row | TIMS collisional cross section (sample type: HeLa) [Å²] | TIMS collisional cross section (sample type: Liver) [Å²] | TIMS collisional cross section (sample type: plasma) [Å²] | Structure (SMILES)
7 | – | 339.7 | 339.3 | CCCCCCCC/C=C\CCCCCCCC(=O)OC[C@H](COC(=O)CCCCCCCCCCCCCCCCCCCCC)OC(=O)CCCCCCC/C=C\CCCCCCCC [TG 18:1_18:1_22:0] (ion (formula + adduct): [C61H114O6+NH4] 1+)
8 | – | 315.3 | – | CCCCCCCC/C=C\CCCCCCCC(=O)OC[C@@H](COC(=O)CCCCCCCCCCCCC)OC(=O)CCCCCCC/C=C\CCCCCCCC [TG 14:0_18:1_18:1] (ion (formula + adduct): [C53H98O6+NH4] 1+)
9 | 318.5 | 317.3 | – | CC/C=C\C/C=C\C/C=C\C/C=C\C/C=C\C/C=C\CCC(=O)OC[C@@H](COC(=O)CCCCCCC/C=C\CCCCCC)OC(=O)CCCCCCC/C=C\CCCCCC [TG 16:1_16:1_22:6] (ion (formula + adduct): [C57H94O6+NH4] 1+)
10 | 324.5 | – | 324.2 | CCCCC/C=C\C/C=C\C/C=C\C/C=C\CCCC(=O)OC[C@@H](COC(=O)CCCCCCCCCCCCCCC)OC(=O)CCCCCCC/C=C\CCCCCCCC [TG 16:0_18:1_20:4] (ion (formula + adduct): [C57H100O6+NH4] 1+)
11 | – | 310.7 ± 0.99 | 310.4 | CCCCC/C=C\C/C=C\CCCCCCCC(=O)OC[C@@H](COC(=O)CCCCCCCCCCCCCC)OC(=O)CCCCCCC/C=C\CCCCCC [TG 15:0_16:1_18:2] (ion (formula + adduct): [C52H94O6+NH4] 1+)
12 | 320 | – | 320.1 | CCCCCC/C=C\CCCCCCCC(=O)OC[C@H](COC(=O)CCCCCCC/C=C\CCCCCCCC)OC(=O)CCCCCCC/C=C\CCCCCCCC [TG 16:1_18:1_18:1] (ion (formula + adduct): [C55H100O6+NH4] 1+)
